Experiments:
Assay in all cases: Fluo-4 calcium fluorescence assay, HEK293 cells
Details in all cases: agonist; co-expressed with ItypOrco; room temperature
ItypOR6 = format: cell-based, Ips typographus
DponOR8^HsCO = format: cell-based, Dendroctonus ponderosae
HabiOR3 = format: cell-based, Hylobius abietis
HabiOR4^HsCO = format: cell-based, Hylobius abietis

Compound | EC50 (ItypOR6) | EC50 (DponOR8^HsCO) | EC50 (HabiOR3) | EC50 (HabiOR4^HsCO)
OCCc1ccccc1 [2-phenylethanol] | 3.45 µM | 5.12 µM | 8.54 µM | 
CC/C=C\CCO [Z3-hexenol] |  |  |  | 7.99 µM
CCCCCCO [1-hexanol] |  |  |  | 2.85 µM

Further compounds by falling EC50 (HabiOR4^HsCO), results first:

EC50 (ItypOR6) | EC50 (DponOR8^HsCO) | EC50 (HabiOR3) | EC50 (HabiOR4^HsCO) | Compound
 |  |  | 7.34 µM | CCC/C=C\CO [Z2-hexenol]
 |  |  | 3.88 µM | CCC/C=C/CO [E2-hexenol]

Source: PMC9321952 (Molecular Ecology, 2022)
